pIC50: −log10 of the molar value. “And” between values parts separate entries of the source, which are not always exact repeats. Equal entries are not always repeated.
Test system: 186277-243-T-J2-PDC complex spheroid viability
Test: Anticancer human tumor 186277-243-T-J2-PDC patient-derived colon adenocarcinoma cell line growth inhibition [GQUAD]
Settings: for viability, T/C: stronger effect = lower value
From the text: DNA G-quadruplex Stabilizer Agents in Combinations in Complex Spheroids
A high-throughput screen of multi-cell type tumor spheroids was designed to identify active combinations of DNA G-quadruplex stabilizer agents and targeted small molecules. Complex spheroids include a stromal component modeled by human endothelial cells (HUVEC) and fibroblasts modeled by human mesenchymal stem cells (MSCs). The concentration ranges selected for each drug and investigational agent were based upon clinically achievable concentrations if the clinical Cmax of the agent was known.
Compounds. The drugs and investigational agents: pidnarulex (CX-5461; NSC782164), APTO-253 (NSC789042), BRACO-19 (NSC847499), peposertib (NSC802822), ceralasertib (NSC780249), elimusertib (NSC800525), camonsertib (NSC841442), AZD-1390 (NSC803789), olaparib (NSC753686), talazoparib (NSC767125), ART-558 (NSC835418), sotorasib (NSC818433), MRTX-1133 (NSC836407), SN-38 (NSC673596), topotecan (NSC609699), etoposide (NSC141540), doxorubicin (NSC123127), gemcitabine (NSC613327), 5-fluorouracil (NSC19893), paclitaxel (NSC125973), vemurafenib (NSC761431), panobinostat (NSC761190), R-306465 (JNJ-16241199; NSC773264), adavosertib (NSC754352), TP-3654 (NSC805149), carboplatin (NSC241240), KSQ-4279 (NSC840948), and staurosporine (NSC755774) were obtained from the National Cancer Institute (NCI) Developmental Therapeutics Program Chemical Repository (34). The FDA-approved anticancer drug set is available from the NCI Developmental Therapeutics Program. […] The stock solutions were prepared in dimethyl sulfoxide (DMSO, Sigma-Aldrich, St. Louis, MO, cat. D2650) at 800-fold the tested concentration and stored at -70 degrees C prior to their use. All drugs and investigational agents were tested over a range starting from a high concentration at or near the clinical Cmax and decreasing in half-log increments. If the clinical Cmax for an agent had not been determined, the highest concentration tested was 10 microM.
2.3 Cell Culture. All cells were maintained in an incubator at 37 degrees C and 5% CO2 with 95% humidity. The PDC lines were cultured according to standard operating procedures established by the NCI PDMR. All PDCs were thawed and cultured in Matrigel-coated flasks prepared with a working solution of 1X Ham's F-12 nutrient mix, without supplementation (Invitrogen, cat. 11765054), 100 U/mL penicillin-streptomycin (Invitrogen, cat. 15140122), and 2.5% Matrigel (Corning Inc., cat. 354248) for the first three passages. The 857933-349-R-J2-PDC line was cultured in 6C/Colon 1B media, which includes advanced DMEM/F-12 (Thermo Fisher Scientific, cat. 12634028), 10 mM HEPES (Thermo Fisher Scientific, cat. 15630080), 1X GlutaMAX supplement (Thermo Fisher Scientific, cat. 35050061), 0.1 mg/mL primocin (InvivoGen, cat. ant-pm-2), 10% defined fetal bovine serum, heat inactivated (HyClone Laboratories Inc., cat. SH30070.03HI), 50% L-WRN conditioned media (ATCC, cat. CRL-3276), 1.25 mM N-Acetyl-L-cysteine (Sigma-Aldrich, cat. A9165), 10 mM nicotinamide (Sigma-Aldrich, cat. N0636), 1X B-27 supplement (Thermo Fisher Scientific, cat. 17504044), 1X N-2 supplement (Thermo Fisher Scientific, cat. 17502048), 10 microM Y-27632 dihydrochloride (Tocris Bioscience, cat. 1254), and 50 ng/mL human EGF recombinant protein (Thermo Fisher Scientific, cat. PHG0311). The 485176-168-R4-J1-PDC line was cultured in Panc media, which includes all 6C/Colon 1B media components plus 100 ng/mL human FGF-10 (Thermo Fisher Scientific, cat. 100-26), 500 nM SB-431542 (Selleckchem, cat. S1067), and gastrin (Tocris, cat. 3006).
[…]

[1] = curve of first compound, second compound 0.0316 µM
[2] = curve of first compound, second compound 0.1 µM
[3] = curve of first compound, second compound 0.316 µM
[4] = curve of first compound, second compound 1 µM
[5] = curve of first compound, second compound 3.16 µM
[6] = curve of first compound, second compound 10 µM
[7] = second compound 0.0316 µM, first compound 0.0316 µM
[8] = second compound 0.0316 µM, first compound 0.1 µM
[9] = second compound 0.0316 µM, first compound 0.316 µM
[10] = second compound 0.0316 µM, first compound 1 µM
[11] = second compound 0.0316 µM, first compound 3.16 µM
[12] = second compound 0.0316 µM, first compound 10 µM
[13] = second compound 0.1 µM, first compound 0.0316 µM
[14] = second compound 0.1 µM, first compound 0.1 µM
[15] = second compound 0.1 µM, first compound 0.316 µM
[16] = second compound 0.1 µM, first compound 1 µM
[17] = second compound 0.1 µM, first compound 3.16 µM
[18] = second compound 0.1 µM, first compound 10 µM
[19] = second compound 0.316 µM, first compound 0.0316 µM
[20] = second compound 0.316 µM, first compound 0.1 µM
[21] = second compound 0.316 µM, first compound 0.316 µM
[22] = second compound 0.316 µM, first compound 1 µM
[23] = second compound 0.316 µM, first compound 3.16 µM
[24] = second compound 0.316 µM, first compound 10 µM
[25] = second compound 1 µM, first compound 0.0316 µM
[26] = second compound 1 µM, first compound 0.1 µM
[27] = second compound 1 µM, first compound 0.316 µM
[28] = second compound 1 µM, first compound 1 µM
[29] = second compound 1 µM, first compound 3.16 µM
[30] = second compound 1 µM, first compound 10 µM
[31] = second compound 3.16 µM, first compound 0.0316 µM
[32] = second compound 3.16 µM, first compound 0.1 µM
[33] = second compound 3.16 µM, first compound 0.316 µM
[34] = second compound 3.16 µM, first compound 1 µM
[35] = second compound 3.16 µM, first compound 3.16 µM
[36] = second compound 3.16 µM, first compound 10 µM
[37] = second compound 10 µM, first compound 0.0316 µM
[38] = second compound 10 µM, first compound 0.1 µM
[39] = second compound 10 µM, first compound 0.316 µM
[40] = second compound 10 µM, first compound 1 µM
[41] = second compound 10 µM, first compound 3.16 µM
[42] = second compound 10 µM, first compound 10 µM
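Further: spheroids exposed to drugs for 7 days.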
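Wherever viability, T/C is given: 100% = DMSO vehicle control viability.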

O=C(c1cc(Cc2n[nH]c(=O)c3ccccc23)ccc1F)N1CCN(C(=O)C2CC2)CC1 + CN(C)c1ccc(Nc2c3ccc(NC(=O)CCN4CCCC4)cc3nc3cc(NC(=O)CCN4CCCC4)ccc23)cc1
pIC50 [1]: < 5.00
pIC50 [2]: < 5.00
pIC50 [3]: < 5.00
pIC50 [4]: < 5.00
pIC50 [5]: < 5.00
pIC50 [6]: < 5.00
viability, T/C [7]: 116%
viability, T/C [8]: 122%
viability, T/C [9]: 115%
viability, T/C [10]: 93.5%
viability, T/C [11]: 81.8%
viability, T/C [12]: 70.2%
viability, T/C [13]: 117%
viability, T/C [14]: 118%
viability, T/C [15]: 115%
viability, T/C [16]: 99%
viability, T/C [17]: 103%
viability, T/C [18]: 53.5%
viability, T/C [19]: 97.7%
viability, T/C [20]: 111%
viability, T/C [21]: 102%
viability, T/C [22]: 95.1%
viability, T/C [23]: 111%
viability, T/C [24]: 63.4%
viability, T/C [25]: 98.2%
viability, T/C [26]: 100%
viability, T/C [27]: 105%
viability, T/C [28]: 110%
viability, T/C [29]: 89.9%
viability, T/C [30]: 75.9%
viability, T/C [31]: 90.4%
viability, T/C [32]: 109%
viability, T/C [33]: 95.3%
viability, T/C [34]: 100%
viability, T/C [35]: 78.7%
viability, T/C [36]: 64.5%
viability, T/C [37]: 105%
viability, T/C [38]: 116%
viability, T/C [39]: 120%
viability, T/C [40]: 111%
viability, T/C [41]: 95.9%
viability, T/C [42]: 54.9%

COc1cc(C2c3cc4c(cc3C(OC3OC5COC(C)OC5C(O)C3O)C3COC(=O)C23)OCO4)cc(OC)c1O (stereo not drawn)
viability, T/C (compound 0.0316 µM): 103% and 110% and 100%
viability, T/C (compound 0.1 µM): 100% and 101% and 85.4%
viability, T/C (compound 0.316 µM): 102% and 83.6% and 82.1%
viability, T/C (compound 1 µM): 72.1% and 50.7% and 50%
viability, T/C (compound 3.16 µM): 52.7% and 37% and 36.2%
viability, T/C (compound 10 µM): 19.4% and 20.9% and 16.9%
pIC50 (curve of compound): 5.50 and 5.90 and 5.88

CC1COCCN1c1cc(C2(S(C)(=N)=O)CC2)nc(-c2ccnc3[nH]ccc23)n1 (stereo not drawn)
viability, T/C (compound 0.0316 µM): 98.7% and 91.8% and 97.2%
viability, T/C (compound 0.1 µM): 84.2% and 100% and 98.6%
viability, T/C (compound 0.316 µM): 102% and 104% and 95.6%
viability, T/C (compound 1 µM): 52.7% and 36.2% and 49%
viability, T/C (compound 3.16 µM): 18.2% and 7.52% and 14.2%
viability, T/C (compound 10 µM): 6.83% and 5.23% and 6.65%
pIC50 (curve of compound): 5.97 and 6.11 and 6.00

CCCS(=O)(=O)Nc1ccc(F)c(C(=O)c2c[nH]c3ncc(-c4ccc(Cl)cc4)cc23)c1F + Cc1cnc(CNC(=O)c2c(=O)c3ccc(N4CCCN(C)CC4)nc3n3c2sc2ccccc23)cn1
pIC50 [1]: 5.21
pIC50 [2]: 5.31
pIC50 [3]: 5.36
pIC50 [4]: > 7.50
pIC50 [5]: > 7.50
pIC50 [6]: > 7.50
viability, T/C [7]: 113%
viability, T/C [8]: 102%
viability, T/C [9]: 116%
viability, T/C [10]: 95.4%
viability, T/C [11]: 88.3%
viability, T/C [12]: 23.4%
viability, T/C [13]: 79.3%
viability, T/C [14]: 72.4%
viability, T/C [15]: 93.1%
viability, T/C [16]: 74.1%
viability, T/C [17]: 72.3%
viability, T/C [18]: 14.5%
viability, T/C [19]: 63.6%
viability, T/C [20]: 62.3%
viability, T/C [21]: 68.5%
viability, T/C [22]: 59%
viability, T/C [23]: 65.7%
viability, T/C [24]: 16.1%
viability, T/C [25]: 47.7%
viability, T/C [26]: 47%
viability, T/C [27]: 54.8%
viability, T/C [28]: 49.3%
viability, T/C [29]: 47.5%
viability, T/C [30]: 15.8%
viability, T/C [31]: 31.3%
viability, T/C [32]: 43.9%
viability, T/C [33]: 48.8%
viability, T/C [34]: 41%
viability, T/C [35]: 38.3%
viability, T/C [36]: 9.83%
viability, T/C [37]: 47.6%
viability, T/C [38]: 36.8%
viability, T/C [39]: 37.3%
viability, T/C [40]: 40.4%
viability, T/C [41]: 37.8%
viability, T/C [42]: 0.36%

Reference: PubChem BioAssay AID2060512 (Molecular Pharmacology Branch, DTP, NCI, 2025)
